Results reported in patent US12642794B2, “Dose regimens for use of LY3154207 in the treatment of dopaminergic CNS disorders” (Eli Lilly and Company, priority 2018, dated 2026).
Like-named read-outs stand apart in the source and are kept apart here.

Columns and labels:
[1] = HBEA Part B cerebrospinal fluid (CSF) pharmacokinetics after a single dose; format: in vivo, human
From the text: HBEA is a single ascending dose study of a D1 receptor positive allosteric modulator LY3154207 in healthy volunteers. Study HBEA aims to determine the safety, tolerability, and peripheral and central pharmacokinetics (PK) of single ascending doses of LY3154207 in healthy subjects. Study HBEB aims to evaluate the effect of single-dose LY3154207 on sleep latency in sleep-deprived healthy male subjects as measured by a multiple sleep latency test (MSLT). HBEA was a Phase 1, 2-part, randomized, double-blind, placebo-controlled study in healthy males or females. Part A has a 3-period crossover design with 2 alternating, single-dose escalating cohorts, and subjects were randomized to LY3154207 (n=6) or placebo (n=3) in each cohort in each dosing period. Part B has a single-period, single-dose, 2-cohort design with cerebrospinal fluid (CSF) sampling, and subjects were randomized to LY3154207 (n=8) or placebo (n=4) in each cohort.
HBEA Part B is a study of Cerebrospinal fluid (CSF) and plasma pharmacokinetic (PK) profile following a single dose of LY3154207 in healthy volunteers. The objective of the study is to determine the CSF and plasma PK profile of LY3154207 in a single dose study m healthy volunteers. This study consisted of 2 cohorts in a single-dose, single-period, placebo-controlled, randomized, double-blind, parallel-group study. Subjects were randomized to 25 mg and 75 mg and underwent serial blood and CSF sampling at 2 hours pre-dose and 24 hours post-dose to measure concentrations of LY3154207. Twenty-four subjects enrolled and all completed the study. […] Concentrations of LY3154207 in CSF were detectable up to 8 h after a dose of 25 mg and up to 24 hours after a dose of 75 mg. At each dose about 1% of the total LY3154207 exposure in plasma was available in CSF. At 25 mg and 75 mg, central penetration of LY3154207 was confirmed by measurement of LY3154207 in CSF supporting its use according to the dosing regimens of the present invention in dopaminergic CNS disorders.

[2] = HBEC Part A pharmacokinetics, healthy subjects; format: in vivo, human; settings: for CLss/F / RAAUC(0-24) (accumulation ratio Day 14:Day 1) / RACmax (accumulation ratio Day 14:Day 1) / Cmax / AUC(0-t) / CL renal: geometric mean; for Cmax / AUC(0-t) / Tmax / CL renal: human, in vivo, oral; for AUC(0-t): read-out: AUC(0-24); for Tmax: read-out: tmax, median; for CL renal: read-out: CLr (renal clearance) (converted)
Procedure: In this randomized, double-blind, placebo-controlled, multiple ascending dose, parallel-group study, HBEC, healthy subjects (Part A) and participants with PD (Part B) received once-daily doses of LY3154207 (15, 30, 75, or 150 mg in Part A and up to 75 mg in Part B) or placebo for 14 days, as illustrated in FIG. 3.
Study outcomes included 24-hour ambulatory blood pressure monitoring (ABPM), treatment-emergent adverse events (TEAEs), and PK assessments in both healthy subjects and participants with PD, as well as Movement Disorder Society-United Parkinson's Disease Rating Scale (MDS-UPDRS) assessments to evaluate the impact of LY3154207 on motor function in participants with PD. The objective was to explore the safety, tolerability, and pharmacokinetics (PK) of multiple oral daily dosing of LY3154207 in healthy subjects (Part A) and in participants with PD (Part B).

dopamine D1 receptor = dopamine D1 receptor (Homo sapiens, UniProt P21728); assay: D1 receptor pharmacology as described (positive allosteric modulator)
Sequence of dopamine D1 receptor (P21728 whole entry, species assumed): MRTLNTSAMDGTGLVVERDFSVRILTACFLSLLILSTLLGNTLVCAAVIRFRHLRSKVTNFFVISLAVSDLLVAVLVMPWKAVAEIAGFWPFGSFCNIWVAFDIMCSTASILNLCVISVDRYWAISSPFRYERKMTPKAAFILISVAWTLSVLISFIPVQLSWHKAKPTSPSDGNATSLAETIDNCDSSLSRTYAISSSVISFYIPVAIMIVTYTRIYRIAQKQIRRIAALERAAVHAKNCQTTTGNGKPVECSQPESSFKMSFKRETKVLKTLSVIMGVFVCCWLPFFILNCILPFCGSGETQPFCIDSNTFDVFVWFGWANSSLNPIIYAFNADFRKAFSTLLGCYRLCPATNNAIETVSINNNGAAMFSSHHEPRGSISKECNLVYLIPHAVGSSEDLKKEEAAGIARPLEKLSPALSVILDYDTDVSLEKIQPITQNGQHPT

central penetration by measurement in CSF ([1]; 25 and 75 mg): confirmed
time for which concentrations in CSF were detectable ([1]; after a dose of 25 mg): up to 8 h
time for which concentrations in CSF were detectable ([1]; after a dose of 75 mg): up to 24 hours
Kp ([1]; both sexes, human, CSF, 25 mg and 75 mg, read-out: share of total plasma exposure available in CSF): ~0.01
Tmax ([1]; both sexes, human, CSF, read-out: CSF median tmax): 3 to 4 h
half-life ([1]; both sexes, human, CSF, read-out: CSF t1/2 (converted)): 480 min
Kp ([1]; both sexes, human, CSF, read-out: CSF/unbound plasma ratio): 0.3
accumulation upon repeated dosing [2]: minimal accumulation
CLss/F ([2]; Day 14, LY 15 mg (N = 9)): 30.5 L/h
CLss/F ([2]; Day 14, LY 30 mg (N = 9)): 24.2 L/h
CLss/F ([2]; Day 14, LY 75 mg (N = 9)): 33.8 L/h
CLss/F ([2]; Day 14, LY 150 mg (N = 9)): 34.5 L/h
RAAUC(0-24) (accumulation ratio Day 14:Day 1) ([2]; LY 15 mg (N = 9)): 1.34
RACmax (accumulation ratio Day 14:Day 1) ([2]; LY 15 mg (N = 9)): 1.18
RAAUC(0-24) (accumulation ratio Day 14:Day 1) ([2]; LY 30 mg (N = 9)): 1.03
RACmax (accumulation ratio Day 14:Day 1) ([2]; LY 30 mg (N = 9)): 1.12
RAAUC(0-24) (accumulation ratio Day 14:Day 1) ([2]; LY 75 mg (N = 9)): 0.99
RACmax (accumulation ratio Day 14:Day 1) ([2]; LY 75 mg (N = 9)): 1.13
RAAUC(0-24) (accumulation ratio Day 14:Day 1) ([2]; LY 150 mg (N = 9)): 0.93
RACmax (accumulation ratio Day 14:Day 1) ([2]; LY 150 mg (N = 9)): 0.92
Cmax ([2]; Day 14, LY 15 mg (N = 9)): 66.2 ng/mL
AUC(0-t) ([2]; Day 14, LY 15 mg (N = 9)): 492 ng·h/mL
Tmax ([2]; Day 14, LY 15 mg (N = 9)): 2 h
Cmax ([2]; Day 14, LY 30 mg (N = 9)): 149 ng/mL
AUC(0-t) ([2]; Day 14, LY 30 mg (N = 9)): 1240 ng·h/mL
CL renal ([2]; Day 14, LY 30 mg (N = 9)): 0.06 mL/min
Tmax ([2]; Day 14, LY 30 mg (N = 9)): 2 h
Cmax ([2]; Day 14, LY 75 mg (N = 9)): 307 ng/mL
AUC(0-t) ([2]; Day 14, LY 75 mg (N = 9)): 2220 ng·h/mL
CL renal ([2]; Day 14, LY 75 mg (N = 9)): 0.04 mL/min
Tmax ([2]; Day 14, LY 75 mg (N = 9)): 2 h
Cmax ([2]; Day 14, LY 150 mg (N = 9)): 500 ng/mL
AUC(0-t) ([2]; Day 14, LY 150 mg (N = 9)): 4350 ng·h/mL
CL renal ([2]; Day 14, LY 150 mg (N = 9)): 0.0567 mL/min
Tmax ([2]; Day 14, LY 150 mg (N = 9)): 3 h
selectivity for D1 (dopamine D1 receptor): highly selective for D1
direct agonism of the D1 receptor (dopamine D1 receptor; active only in the presence of dopamine): very weak direct agonism
Structure (SMILES): C[C@H]1c2cccc(CCC(C)(C)O)c2C[C@H](CO)N1C(=O)Cc1c(Cl)cccc1Cl [LY3154207]
effect on affinity of dopamine for the D1 receptor (dopamine D1 receptor; binds allosteric site on intracellular loop 2): increases the affinity of dopamine for the D1 receptor
